The results in this text go back to ChEMBL document CHEMBL5214921, “Bacterial type I signal peptidase inhibitors - Optimized hits from nature” (Eur J Med Chem, 2022).

In assay [1] the test system is Staphylococcus aureus. Description: Antibacterial activity against methicillin-resistant Staphylococcus aureus assessed as bacterial growth inhibition measured after 24 hrs. The format is functional.
Assay [2] concerns Staphylococcus aureus. Description: Antibacterial activity against methicillin-resistant Staphylococcus aureus assessed as bacterial growth inhibition. The format is functional.
A short description of assay [3]: Inhibition of LepB (unknown origin). More on the design: species or system Bacteria.
Assay [4] has as its system Staphylococcus epidermidis. Kind of assay: Antibacterial activity against Staphylococcus epidermidis assessed as bacterial cell growth inhibition. The assay is classed as functional.
In assay [5] the test system is Escherichia coli. Kind of assay: Antibacterial activity against Escherichia coli MG1655 assessed as bacterial cell growth inhibition measured after 18 hrs by CLSI based broth microdilution method. The format is functional. In general terms: Dilution methods test growth across graded concentrations, often in twofold steps.
For assay [6], the system named is Staphylococcus epidermidis. Description: Antibacterial activity against Staphylococcus epidermidis ATCC 35984 assessed as bacterial cell growth inhibition measured after 18 hrs by CLSI based broth microdilution method. The assay is classed as functional.
The subject of assay [7] is Escherichia coli. Kind of assay: Antibacterial activity against Escherichia coli assessed as bacterial cell growth inhibition. The format is functional.
Assay [8] has as its system Pseudomonas aeruginosa. Description: Antibacterial activity against wild type Pseudomonas aeruginosa PA14 assessed as inhibition of bacterial growth […] by CLSI based protocol. The format is functional.
The subject of assay [9] is Pseudomonas aeruginosa. Kind of assay: Antibacterial activity against wild type Pseudomonas aeruginosa PA14 assessed as inhibition of bacterial growth. The assay is classed as functional.
Assay [10] has as its system Escherichia coli. Kind of assay: Antibacterial activity against Escherichia coli ATCC 25922 assessed as bacterial cell growth inhibition. The assay is classed as functional.
In assay [11] the test system is Staphylococcus aureus. Kind of assay: Antibacterial activity against Staphylococcus aureus assessed as bacterial cell growth inhibition. The assay is classed as functional.
Assay [12] has as its system Staphylococcus aureus. Description: Antibacterial activity against Staphylococcus aureus NCTC 8325 assessed as bacterial cell growth inhibition by CLSI based broth microdilution method. The format is functional.
For assay [13], the system named is Staphylococcus epidermidis. Kind of assay: Antibacterial activity against Staphylococcus epidermidis assessed as bacterial cell growth inhibition by CLSI based broth microdilution method. The format is functional.
The test system of assay [14] is Staphylococcus aureus. Kind of assay: Antibacterial activity against Staphylococcus aureus 8325 assessed as bacterial cell growth inhibition measured after 18 hrs by CLSI based broth microdilution method. The format is functional.
The nature of assay [15]: Inhibition of Staphylococcus aureus SpsB incubated for 15 mins by fluorescence based analysis.
Assay [16] in a line: Inhibition of Escherichia coli Signal peptidase I using decanoyl-k(DABCYL)-TPTAKAASKKD-D(EDANS)-NH2 as substrate by fluorescence-based analysis.
The nature of assay [17]: Inhibition of Streptococcus pneumoniae Signal peptidase I using decanoyl-k(DABCYL)-TPTAKAASKKD-D(EDANS)-NH2 as substrate by fluorescence-based analysis.

≈ marks a conversion by molar mass, not a printed value. *1 amine or outer side, *2 acyl side, *3 side chain or, on linkers, in order; H or OH if unused. Where a SMILES comes first, the peptide text is derived from it. [ ]: non-standard residue; d: D form. The star is where a group is joined. X1 = C[C@H](N[*:1])C(=O)C(=O)[*:2]; NMeT = CN[C@H](C(=O)O)[C@@H](C)O; Decanoyl = CCCCCCCCCC(=O)*; βAla = NCCC(=O)O

A word on the MIC: it is the lowest concentration found to suppress growth. By IC50 is commonly meant the concentration that inhibits the measured activity by half. Low readings indicate greater potency in that assay, high ones weaker potency in that assay.

As to `O=C(Nc1ccc2c(c1)OC(F)(F)O2)Nc1ccc(Cl)c(C(F)(F)F)c1`, the MIC in the assay with Staphylococcus aureus [1] was found to be 0.3 µM (≈ 0.118 µg/mL); with Staphylococcus aureus [2], 0.12 µg/mL (≈ 0.304 µM).

The compound `C=CCOC(=O)C1=CS[C@H]2[C@@H]([C@@H](C)O)C(=O)N12` yielded an IC50 in assay [3] of 180 nM.

For the compound `CCCCCCCCCCCCCCCC(=O)N(C)[C@H](CO)C(=O)N[C@H](C)C(=O)NCC(=O)N(C)[C@@H]1C(=O)N[C@@H](C)C(=O)N[C@H](C(=O)O)Cc2ccc(O)c(c2)-c2cc1ccc2O` [ARYLOMYCIN C16], the MIC in assay [4] was determined as 0.43 µg/mL (≈ 0.488 µM); with Escherichia coli [5], 16 µM (≈ 14.1 µg/mL); in assay [6], 0.5 µM (≈ 0.441 µg/mL); in the assay with Escherichia coli [7], 13.9 µg/mL (≈ 15.7 µM).

As to `Cc1nc(-c2ccc(C(C)(C)C)cc2)nc(C)c1C(=O)N[C@@H](CCN)C(=O)N(C)[C@@H]1C(=O)N[C@@H](C)C(=O)N[C@H](C(=O)NCC#N)Cc2cc(OCCN)cc(c2)-c2cc1ccc2OCCN`, the MIC in the assay with Pseudomonas aeruginosa [8] came to 2 µM (≈ 1.81 µg/mL); in the assay with Pseudomonas aeruginosa [9], 1.81 µg/mL (≈ 2 µM).

In the case of `Cc1nc(-c2ccc(C(C)(C)C)cc2)ncc1C(=O)N[C@@H](CCN)C(=O)N(C)[C@@H]1C(=O)N[C@@H](C)C(=O)N[C@H](C(=O)NCC#N)Cc2cc(OCCN)cc(c2)-c2cc1ccc2OCCN`, the MIC in the assay on Pseudomonas aeruginosa [8] was 2 µM (≈ 1.78 µg/mL); in the assay with Escherichia coli [10], 0.125 µg/mL (≈ 0.14 µM); in the assay on Pseudomonas aeruginosa [9], 1.78 µg/mL (≈ 2 µM); in assay [4], 0.25 µg/mL (≈ 0.281 µM); in the assay on Staphylococcus aureus [11], 0.06 µg/mL (≈ 0.0674 µM).

On to `CNC(=O)c1cc(Oc2ccc(NC(=O)Nc3ccc(Cl)c(C(F)(F)F)c3)cc2)ccn1` [SORAFENIB], for which the MIC in the assay on Staphylococcus aureus [1] is 3 µM (≈ 1.39 µg/mL); in the assay on Staphylococcus aureus [2], 1.39 µg/mL (≈ 2.99 µM).

For the compound `C=CCOC(=O)C1=CS[C@H]2[C@@H]([C@@H](C)OC(C)=O)C(=O)N12`, half-maximal inhibition in assay [3] (IC50) was put at 70 nM.

Regarding `C[C@@H]1NC(=O)[C@@H](N(C)C(=O)CNC(=O)[C@@H](C)NC(=O)[C@@H](CO)NC(=O)CCCCCCCCc2ccc(-c3ccccc3)cc2)c2ccc(O)c(c2)-c2cc(ccc2O)C[C@@H](C(=O)O)NC1=O`, the MIC (in the assay on Staphylococcus aureus [12]; in assay [13]) was 16 µg/mL (≈ 17.4 µM) in each case.

On to `CC(C)CCCCCCCCC(=O)N(C)[C@H](CO)C(=O)N[C@H](C)C(=O)NCC(=O)N(C)[C@@H]1C(=O)N[C@@H](C)C(=O)N[C@H](C(=O)O)Cc2ccc(O)c(c2)-c2cc1ccc2O` [ARYLOMYCIN A2], for which the MIC in assay [4] is 0.81 µg/mL (≈ 0.982 µM); in the assay with Staphylococcus aureus [14] it was more than 128 µM; with Escherichia coli [5] it was more than 128 µM; in the assay on Staphylococcus aureus [11], 104 µg/mL (≈ 126 µM); in assay [6], 1 µM (≈ 0.825 µg/mL); in the assay on Escherichia coli [7] it was 104 µg/mL (≈ 126 µM).

With `CCCCCCCCCC(=O)N[C@@H](CC(C)C)C(=O)N[C@H](C(=O)N1CCC[C@H]1C(=O)N(C)[C@H](C(=O)N[C@@H](C)C(=O)N[C@@H](CC(N)=O)C(=O)N[C@@H](C)C(=O)C(=O)NCCC(=O)N[C@@H](CC(=O)O)C(=O)O)[C@@H](C)O)[C@@H](C)O` (Decanoyl-LTP[NMeT]AN[X1][βAla]D-OH), the IC50 in assay [15] stood at 100 nM.

As to `CCCC(C)/C=C(/C)C(=O)OC(CCCCCCC/C=C/C(=O)NCCC(=O)N[C@@H](CS(=O)(=O)O)C(=O)N(C)[C@@H]1C(=O)N[C@@H](C)C(=O)N[C@H](C(=O)O)Cc2ccc(O)c(c2)-c2cc1cc(O)c2O[C@@H]1O[C@@H](C)[C@H](OS(=O)(=O)O)[C@@H](OS(=O)(=O)O)[C@H]1O)CCC(C)C` (stereo partly drawn), the values for the IC50 in assay [16] and in [17] were 110 nM and 2400 nM, respectively.
